# From patent publication US20230203081A1, “LINCOSAMIDE ANTIBIOTICS AND USES THEREOF” (President and Fellows of Harvard College, priority 2020, published 2023)
# Where two headings read alike, the source gives them in different places.
# How the values were obtained:
# Type in all cases: cell-based
# [1] = tested on: H. influenzae ATCC 49247; test: MIC (broth microdilution or agar dilution, CLSI)
# Method in brief: (§1)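 Inoculum for broth microdilution was 5×10^5 CFU/mL final, prepared from overnight 35° C blood-agar subcultures (separate handling for streptococcal and anaerobic strains); MICs read by CLSI broth microdilution or agar dilution.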
# [2] = tested on: E. coli ATCC 25922; test: MIC (broth microdilution or agar dilution, CLSI)
# Method in brief: as §1
# [3] = tested on: E. faecalis ATCC 29212; test: MIC (broth microdilution or agar dilution, CLSI)
# Method in brief: as §1
# [4] = tested on: E. coli MP-9 ΔTolC; test: MIC (broth microdilution or agar dilution, CLSI)
# Method in brief: as §1
# [5] = tested on: S. pneumoniae ATCC 49619; test: MIC (broth microdilution or agar dilution, CLSI); conditions: Streptococcus pneumoniae, read-out: MIC
# Method in brief: as §1
# [6] = tested on: S. pyogenes ATCC 19615; test: MIC (broth microdilution or agar dilution, CLSI)
# Method in brief: as §1
# [7] = tested on: S. aureus ATCC 29213; test: MIC (broth microdilution or agar dilution, CLSI)
# Method in brief: as §1
# [8] = tested on: E. coli MP-74 LptD mutant; test: MIC (broth microdilution or agar dilution, CLSI)
# Method in brief: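 CLSI MIC, broth microdilution or agar dilution; compound 128-0.06 μg/mL, 2.5% DMSO final; triplicate. Anaerobes (e.g. clostridia) and streptococci run by specialized procedures. Other strains: overnight 35° C on blood agar, CaMHB, 0.5 McFarland, inoculum 5×10^5 CFU/mL.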
# [9] = tested on: S. pneumoniae MMX 3028 cErmB; test: MIC (broth microdilution or agar dilution, CLSI); conditions: Streptococcus pneumoniae, MMX3028CERMB, read-out: MIC
# Method in brief: as §1
# [10] = tested on: A. baumannii ATCC 19606; test: MIC (broth microdilution or agar dilution, CLSI); conditions: Acinetobacter baumannii, ATCC19606; A. baumanii HAV#010, ATCC 19606; read-out: MIC
# Method in brief: as §1
# [11] = tested on: K. pneumoniae ATCC 10031; test: MIC (broth microdilution or agar dilution, CLSI)
# Method in brief: as §1
# [12] = tested on: S. pneumoniae MMX 3031 cMefA; test: MIC (broth microdilution or agar dilution, CLSI); conditions: Streptococcus pneumoniae, MMX3031CMEFA, read-out: MIC
# Method in brief: as §1
# [13] = tested on: E. coli LptD; test: MIC (broth microdilution or agar dilution, CLSI); conditions: Escherichia coli, E. coli HAV#040; LptD; read-out: MIC
# Method in brief: as §1
# [14] = tested on: S. pyogenes MMX 946; cErmB; test: MIC (broth microdilution or agar dilution, CLSI); conditions: Streptococcus pyogenes, cErmB, read-out: MIC
# Method in brief: as §1
# [15] = tested on: S. aureus hVISA; test: MIC (broth microdilution or agar dilution, CLSI); conditions: Staphylococcus aureus; S. aureus HAV#204, hVISA; read-out: MIC
# Method in brief: as §1
# [16] = tested on: K. oxytoca Clinical; test: MIC (broth microdilution or agar dilution, CLSI); conditions: Klebsiella oxytoca; K. oxytoca HAV#450; Clinical; read-out: MIC
# Method in brief: as §1
# [17] = tested on: S. pneumoniae ATCC 6303; test: MIC (broth microdilution or agar dilution, CLSI); conditions: Streptococcus pneumoniae, ATCC6303; S. pneumoniae HAV#351, ATCC 6303; read-out: MIC
# Method in brief: as §1
# [18] = tested on: S. aureus MMX 3035 cErmA; test: MIC (broth microdilution or agar dilution, CLSI); conditions: Staphylococcus aureus, MMX3035CERMA, read-out: MIC
# Method in brief: as §1
# [19] = tested on: S. aureus ATCC BAA-1707 (MRSA); test: MIC (broth microdilution or agar dilution, CLSI); conditions: Staphylococcus aureus; S. aureus HAV#016, ATCC BAA-1707; MRSA; read-out: MIC
# Method in brief: as §1
# [20] = tested on: E. faecalis MMX 847; cErmB; test: MIC (broth microdilution or agar dilution, CLSI); conditions: Enterococcus faecalis, cErmB, read-out: MIC
# Method in brief: as §1
# [21] = tested on: S. aureus MP-549 msrA; test: microbe, parasite or virus in culture
# Method in brief: as §1
# [22] = tested on: E. coli ΔTolC; test: microbe, parasite or virus in culture; conditions: Escherichia coli, E. coli HAV#038; ΔTolC
# Method in brief: as §1
# [23] = tested on: broad panel of different clinical isolates; test: microbe, parasite or virus in culture
# Method in brief: as §1
# [24] = tested on: E. coli armA; test: microbe, parasite or virus in culture; conditions: Escherichia coli, E. coli HAV#056; Clinical, armA
# Method in brief: as §1
# [25] = tested on: S. aureus BAA 977 iErmA; test: microbe, parasite or virus in culture; conditions: Staphylococcus aureus
# Method in brief: as §1
# [26] = Enterococcus faecalis, ATCC29212, E. faecalis ATCC 29212, read-out: MIC
# [27] = ATCC49619, S. pneumoniae ATCC 49619
# [28] = Streptococcus pyogenes, ATCC19615, S. pyogenes ATCC 19615, read-out: MIC
# [29] = Staphylococcus aureus, ATCC29213, S. aureus ATCC 29213, read-out: MIC
# [30] = Haemophilus influenzae, ATCC49247, H. influenzae ATCC 49247, read-out: MIC
# [31] = Escherichia coli, ATCC25922, E. coli ATCC 25922, read-out: MIC
# [32] = Staphylococcus aureus, MP549MSRA, S. aureus MP-549 msrA
smiles,measurement,setting,value
CSC1O[C@H]([C@H](NC(=O)[C@@H]2[C@@H]3OCC[C@H](CC(C)(C)C)C[C@H]3CN2C)[C@H](C)Cl)CC(O)[C@H]1O (stereo partly drawn) [FSA-513004a],MIC,"[1]; Haemophilus influenzae, ATCC49247",128 µg/mL
same,MIC,"[2]; Escherichia coli, ATCC25922, E. coli ATCC 25922",> 128 µg/mL
same,MIC,[3]; [26],1 µg/mL
same,MIC,[4]; Escherichia coli,> 128 µg/mL
same,MIC,[5]; [27],0.5 µg/mL
same,MIC,[6]; [28],0.25 µg/mL
same,MIC,[7]; [29],1 µg/mL
same,MIC,[8]; Escherichia coli,128 µg/mL
CC[C@H]1OC(=O)[C@H](C)[C@@H](O[C@H]2C[C@@](C)(OC)[C@@H](O)[C@H](C)O2)[C@H](C)[C@@H](O[C@@H]2O[C@H](C)C[C@H](N(C)C)[C@H]2O)[C@](C)(O)C[C@@H](C)C(=O)[C@H](C)[C@@H](O)[C@]1(C)O [Erythromycin],MIC,"[9]; S. pneumoniae HAV#033, MMX 3028, cErmB",> 64 µg/mL
same,MIC,[10],64 µg/mL
same,MIC,"[1]; Haemophilus influenzae, ATCC49247, H. influenzae HAV#007, ATCC 49247, read-out: MIC",8 µg/mL
same,MIC,"[11]; Klebsiella pneumoniae, ATCC10031, K. pneumoniae HAV#008, ATCC 10031, read-out: MIC",8 µg/mL
same,MIC,"[12]; S. pneumoniae HAV#034, MMX 3031, cMefA",8 µg/mL
same,MIC,"[2]; Escherichia coli, ATCC25922, E. coli HAV#006, ATCC 25922, read-out: MIC",64 µg/mL
same,MIC,[13],1 µg/mL
same,MIC,"[3]; Enterococcus faecalis, ATCC29212, E. faecalis HAV#005, ATCC 29212, read-out: MIC",2 µg/mL
same,MIC,"[14]; S. pyogenes HAV#035, MMX 946, mac-resistant",> 64 µg/mL
same,MIC,[15],> 64 µg/mL
same,MIC,[16],> 64 µg/mL
same,MIC,[17],0.5 µg/mL
same,MIC,"[18]; S. aureus HAV#031, MMX 3035, cErmA",> 64 µg/mL
same,MIC,"[5]; ATCC49619, S. pneumoniae HAV#003, ATCC 49619",≤ 0.06 µg/mL
same,MIC,[19],0.5 µg/mL
same,MIC,"[20]; E. faecalis HAV#036, MMX 847, mac-resistant",> 64 µg/mL
same,MIC,"[6]; Streptococcus pyogenes, ATCC19615, S. pyogenes HAV#004, ATCC 19615, read-out: MIC",< 0.06 µg/mL
same,MIC,"[7]; Staphylococcus aureus, ATCC29213, S. aureus HAV#001, ATCC 29213, MP-549, read-out: MIC",0.5 µg/mL
same,MIC,"[21]; Staphylococcus aureus, MP549MSRA, S. aureus HAV#032, MP-549, MSR(A)",64 µg/mL
same,MIC,[22],4 µg/mL
same,MIC,"[23]; Enterococcus faecalis, VRE, E. faecalis HAV#251, Clinical VRE",> 64 µg/mL
same,MIC,"[23]; Escherichia coli, E. coli HAV#501, Clinical",> 64 µg/mL
same,MIC,"[23]; Klebsiella pneumoniae, K. pneumoniae HAV#041, Clinical, KPC",> 64 µg/mL
same,MIC,"[23]; Staphylococcus aureus, MRSA, S. aureus HAV#017, MRSA Col(Colindale, England)",0.5 µg/mL
same,MIC,"[23]; Staphylococcus aureus, S. aureus HAV#216, Clinical, cfr",32 µg/mL
same,MIC,"[23]; Staphylococcus aureus, S. aureus HAV#217, cfr",64 µg/mL
same,MIC,"[23]; Staphylococcus aureus, VISA, S. aureus HAV#203, Clinical (VISA)",> 64 µg/mL
same,MIC,"[23]; Staphylococcus epidermidis, S. epidermidis HAV# 275 Clinical, cfr",8 µg/mL
same,MIC,"[23]; Staphylococcus epidermidis, S. epidermidis HAV# 276, cfr",> 128 µg/mL
same,MIC,[24],32 µg/mL
same,MIC,[25]; BAA-977 / MRSA,> 64 µg/mL
CSC1O[C@H]([C@H](NC(=O)[C@H]2NC[C@@H]3C[C@H](C(C)C)CCO[C@H]32)[C@H](C)Cl)C(O)[C@@H](O)[C@H]1O (stereo partly drawn) [FSA-512078b],MIC,[1]; H. influenzae ATCC 49247,32 µg/mL
same,MIC,[11]; K. pneumoniae ATCC 10031,4 µg/mL
same,MIC,[2]; E. coli ATCC 25922,128 µg/mL
same,MIC,[3]; E. faecalis ATCC 29212,0.5 µg/mL
same,MIC,[4]; E. coli MP-9 ΔTolC,4 µg/mL
same,MIC,[6]; S. pyogenes ATCC 19615,≤0.12 µg/mL
same,MIC,[7]; S. aureus ATCC 29213,0.5 µg/mL
same,MIC,[21]; S. aureus MP-549 msrA,0.25 µg/mL
same,MIC,[8]; E. coli MP-74 LptD mutant,16 µg/mL
CSC1O[C@H]([C@H](NC(=O)[C@H]2NC[C@@H]3C[C@@H](CC(C)C)CCO[C@H]32)[C@H](C)Cl)CC(O)[C@H]1O (stereo partly drawn) [FSA-513018a],MIC,[9]; S. pneumoniae MMX 3028 cErmB,0.5 µg/mL
same,MIC,[1]; [30],2 µg/mL
same,MIC,[12]; S. pneumoniae MMX 3031 cMefA,≤ 0.06 µg/mL
same,MIC,[2]; [31],16 µg/mL
same,MIC,[3]; [26],≤ 0.06 µg/mL
same,MIC,[14]; S. pyogenes MMX 946,0.5 µg/mL
same,MIC,[4]; Escherichia coli,0.5 µg/mL
same,MIC,[18]; S. aureus MMX 3035 cErmA,8 µg/mL
same,MIC,[5]; [27],≤ 0.06 µg/mL
same,MIC,[20]; E. faecalis MMX 847,2 µg/mL
same,MIC,[6]; [28],≤ 0.06 µg/mL
same,MIC,[7]; [29],≤ 0.06 µg/mL
same,MIC,[21]; [32],≤ 0.06 µg/mL
same,MIC,[25]; BAA977,≤ 0.06 µg/mL
same,MIC,[8]; Escherichia coli,2 µg/mL
CSC1O[C@H]([C@H](NC(=O)[C@@H]2[C@@H]3OCC[C@@H](C4CCCC4)C[C@H]3CN2C)[C@H](C)Cl)CC(O)[C@H]1O (stereo partly drawn) [FSA-513001b],MIC,[9]; S. pneumoniae MMX 3028 cErmB,16 µg/mL
same,MIC,[1]; [30],4 µg/mL
same,MIC,[12]; S. pneumoniae MMX 3031 cMefA,≤ 0.06 µg/mL
same,MIC,[2]; [31],64 µg/mL
same,MIC,[3]; [26],0.12 µg/mL
same,MIC,[14]; S. pyogenes MMX 946,16 µg/mL
same,MIC,[4]; Escherichia coli,2 µg/mL
same,MIC,[18]; S. aureus MMX 3035 cErmA,32 µg/mL
same,MIC,[5]; [27],0.06 µg/mL
same,MIC,[20]; E. faecalis MMX 847,16 µg/mL
same,MIC,[6]; [28],0.06 µg/mL
same,MIC,[7]; [29],0.12 µg/mL
same,MIC,[21]; [32],0.12 µg/mL
same,MIC,[25]; BAA977,0.12 µg/mL
same,MIC,[8]; Escherichia coli,4 µg/mL
